# Assay results taken from ChEMBL document CHEMBL1157064, “Homoisoflavonoids from the fibrous roots of Polygonatum odoratum with glucose uptake-stimulatory activity in 3T3-L1 adipocytes” (J Nat Prod, 2010).
# Calls of active or inactive are those of the source. The calls are words filed in the database; no cut-off is given here.
# Tested on: 3T3-L1
# Test: Increase in insulin-stimulated [3H]2-deoxy-D-glucose uptake in mouse 3T3L1cells at 1 uM after 3 days by liquid scintillation counting relative to insulin
# Type: functional, cell-based
row,SMILES,Activity
1,COc1ccc(CC2COc3c(C)c(O)c(C)c(O)c3C2=O)cc1O (racemic),Active
2,COc1c(O)c(C)c(O)c2c1OC[C@@H](Cc1ccc(O)cc1)C2=O,Active
3,Cc1c(O)c(C)c2c(c1O)C(=O)/C(=C/c1ccc(O)cc1)CO2,Active
4,COc1ccc(CC2COc3c(OC)c(O)c(C)c(O)c3C2=O)c(O)c1 (racemic),Active
5,COc1c(O[C@@H]2O[C@H](CO)[C@@H](O)[C@H](O)[C@H]2O)cc2occ(-c3ccc(O)cc3)c(=O)c2c1O,Active
6,COc1ccc(CC2COc3c(C)c(O)c(C)c(O)c3C2=O)c(O)c1 (racemic),Active
7,O=C1/C(=C/c2ccc(O)cc2)COc2cc(O[C@@H]3O[C@H](CO)[C@@H](O)[C@H](O)[C@H]3O)cc(O)c21,Active
8,COc1ccc(C[C@@H]2COc3c(C)c(O)c(C)c(O)c3C2=O)cc1,Active
9,Cc1c(O)c(C)c2c(c1O)C(=O)[C@H](Cc1ccc(O)cc1)CO2,Active
10,COc1ccc([C@@H]2CC(=O)c3c(O)cc(O[C@@H]4O[C@H](CO[C@@H]5O[C@@H](C)[C@H](O)[C@@H](O)[C@H]5O)[C@@H](O)[C@H](O)[C@H]4O)cc3O2)cc1O,Active
11,COc1ccc(C[C@@H]2COc3c(OC)c(O)c(C)c(O)c3C2=O)cc1,Active
